Source: PubChem BioAssay AID743396 (Broad Institute, 2014)
Activity calls are given as the source filed them.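 Rule for the calls: active = fitted curve reaches a 40% rise in fluorescent cells at or below the top valid dose; inactive = opposite-direction effect, or the rest.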

Tested on: mTEFS fibroblasts autofluorescence, GFP-channel imaging, 3 days
Experiment: autofluorescent compounds in non-GFP fibroblasts, dose response, artefact control for X-chromosome reactivation project, imaging, mTEFS fibroblasts, cherry-pick (AID 743396)

| SMILES | AC40 (cells pretreated with 5-aza-dC) | AC40 |
| --- | --- | --- |
| COC1=CC(=O)c2nc(Cl)ccc2C1=O | 18.5 µM |  |
| C/C(=N\Nc1ncnc2sc(C)c(C)c12)c1ccccn1 | 1.55 µM |  |
| N#C/C(=C/c1ccc(N2CCCCC2)o1)C(=O)NCCc1c[nH]c2ccccc12 | 5.61 µM |  |
| CCc1cccc2cc3c(N)c(C(=O)Nc4ccc(S(=O)(=O)N5CCCC5)cc4)sc3nc12 | 7.09 µM |  |
| CN(C)c1ccc(/C=C(/C#N)C(=O)NCc2ccccc2)o1 | 14.7 µM |  |
| Cc1ccc2cc3c(N)c(C(=O)Nc4c(C)[nH]c(=O)[nH]c4=O)sc3nc2c1 | > 19.5 µM (inactive) |  |
| CCN(CC)c1ccc2cc(C(=O)c3cccs3)c(=O)oc2c1 | 11.3 µM |  |
| CC(=O)Nc1cc2c3c(cccc3c1)-c1ccccc1-2 | 2.19 µM |  |
| CCCCN(C)C1=CC2=CC(=C(C#N)C#N)CCC2CC1 (configuration not stated) | 3.44 µM |  |
| NC(=O)c1c(NC(=O)c2ccccc2)sc2c1CCN(Cc1ccccc1)C2 | > 19.5 µM (inactive) |  |
| Cc1oc2ccc(NS(=O)(=O)c3cccc4cccnc34)cc2c1C(=O)OC(C)C | 4.77 µM |  |
| COc1ccccc1-[n+]1c(C)cc(/C=C2\Sc3ccccc3N2C)cc1C | 3.52 µM |  |
| COc1cc2c3nnc(-c4ccccc4)c-3cn(Cc3ccccc3F)c2cc1OC | 4.02 µM |  |
| Cc1cc2oc3ccc(NCCCn4ccnc4)cc3c(=O)c2cc1C | 19.2 µM |  |
| CC[n+]1c(/C=C/C=C/N(C(C)=O)c2ccccc2)sc2cc(OC)ccc21 | 2.73 µM |  |
| CN1CCc2c(sc(NC(=O)c3ccc(S(=O)(=O)N4CCc5ccccc54)cc3)c2C(N)=O)C1 | 18 µM |  |
| Nc1c(C(=O)c2ccccc2)sc2nsc(SCCN3CCCC3)c12 | 10.5 µM |  |
| N#C/C(=C/c1ccc(N2CCCCC2)o1)C(=O)Nc1ccc2ccccc2c1 | 1.53 µM |  |
| Cc1ccc(-c2cn3nc(-c4ccccc4)c(-c4ccccc4)nc3n2)cc1 | 7.88 µM |  |
| CC(C)CCN1C(=O)c2cccc3c(N)ccc(c23)C1=O | 5.86 µM |  |
| CCN1/C(=C\c2ccc3cc(C)ccc3[n+]2CC)Sc2cc(C)c(C)cc21 | 15.7 µM |  |
| CCN(CC)C1=CC2=CC(=C(C#N)C#N)CCC2CC1 (configuration not stated) | > 19.5 µM (inactive) |  |
| COc1cc2c3nnc(-c4ccc(F)cc4)c-3cn(Cc3ccccc3)c2cc1OC | 3.67 µM |  |
| Cc1ccc(Cl)c2c(N=Nc3ccccc3)c(O)[nH]c12 | > 19.5 µM (inactive) |  |
| O=CNc1ccc2c3c(cccc13)-c1ccccc1-2 | 8.57 µM |  |
| C/C(CC(=O)Nc1ccc(C)c(Cl)c1)=N\NC(=O)Cc1ccccc1 | 18.1 µM |  |

| SMILES | AC40 (cells pretreated with 5-aza-dC) | AC40 |
| --- | --- | --- |
| COc1ccccc1N1N=C(c2ccc([N+](=O)[O-])cc2)CC1c1ccccc1 (configuration not stated) | 5.77 µM |  |
| Cc1cccc2cc3c(N)c(C(=O)N4CCCc5ccccc54)sc3nc12 | 10.2 µM |  |
| COc1ccc(C(=O)Nc2c(F)c(F)c(F)c(F)c2F)cc1OC | > 19.5 µM (inactive) |  |
| COC1=CC(=O)c2c(ccc3ncnc(N)c23)C1=O | > 19.5 µM (inactive) |  |
| CN1/C(=C/C=C(C#N)C#N)C(C)(C)c2ccccc21 | 19.4 µM |  |
| Cc1cccc2cc3c(N)c(C(=O)N4CCc5ccccc54)sc3nc12 | 10.5 µM |  |
| CCN1/C(=C\c2ccc3ccccc3[n+]2CC)Sc2cc(C)ccc21 | 0.582 µM |  |
| Nc1c(C(=O)Nc2ccc(S(=O)(=O)N3CCCC3)cc2)sc2nc3cc4c(cc3cc12)CCC4 | 10.6 µM |  |
| CCN1CCc2c(sc(NC(=O)c3ccc(S(=O)(=O)N(CC)c4ccccc4)cc3)c2C(N)=O)C1 | 6.59 µM |  |
| CC1=NN(c2nc(N)nc(/C(C#N)=C/c3ccc([N+](=O)[O-])o3)n2)C(C)(C)C1 | 4.78 µM |  |
| Nc1[nH]c2cc([N+](=O)[O-])ccc2c1-c1ccccn1 | 8.95 µM |  |
| N#C/C(=C/c1ccc(-c2ccccc2)o1)c1nc(-c2cccs2)cs1 | 7.35 µM |  |
| COc1ccc(-[n+]2c(C)cc(/C=C3\Sc4ccccc4N3C)cc2C)cc1 | 1.58 µM |  |
| Cc1cccc(NC(=O)/C=C/c2ccc([N+](=O)[O-])s2)c1 | 3.68 µM |  |
| CCN1/C(=C/c2ccc3cc(C)ccc3[n+]2CC)Sc2cc(C)ccc21 | 6.21 µM |  |
| CCOC(=O)Cn1c(=O)c(-c2cc(Br)ccc2N)nc2ccccc21 | > 19.5 µM (inactive) |  |
| c1ccc(-c2cnn3c(-c4ccccc4)c(-c4ccccc4)nc3n2)cc1 | 2.58 µM |  |
| CN(C)CCCN1C(=O)c2cccc3c([N+](=O)[O-])ccc(c23)C1=O | > 19.5 µM (inactive) |  |
| CCCN1C(=O)S/C(=C\c2ccc(N3CCOCC3)o2)C1=O | > 19.5 µM (inactive) |  |
| Cn1c(=O)[nH]c(=O)c2c1nc(SCCN1CCOCC1)n2CCCc1ccccc1 | 10.9 µM |  |
| COC1C(CO)OC(n2c3c(Cl)cccc3c3c4c(c5c6cccc(Cl)c6[nH]c5c32)C(=O)NC4=O)C(O)C1O (configuration not stated) | > 19.5 µM (inactive) |  |
| Cc1n[nH]c(=S)n1/N=C/c1ccc(-c2ccc(Cl)cc2)o1 | > 19.5 µM (inactive) |  |
| CCN1CCc2c(sc(NC(=O)Nc3ccc(Cl)c(Cl)c3)c2C(N)=O)C1 | 0.558 µM |  |
| Nc1ccc2c3c(cccc13)-c1ccccc1-2 | 1.49 µM |  |
| CC(=O)Oc1cccc(N2C(=O)c3cccc4c([N+](=O)[O-])ccc(c34)C2=O)c1 | > 19.5 µM (inactive) |  |
| CC1=CC(=Cc2sc3ccccc3[n+]2C)C=C(C)O1 |  | > 19.5 µM (inactive) |

| SMILES | AC40 (cells pretreated with 5-aza-dC) | AC40 |
| --- | --- | --- |
| O=[N+]([O-])c1ccc(N/N=C/c2sc(N3CCOCC3)nc2-c2ccccc2)c(S(=O)(=O)Nc2ccc(Cl)cc2)c1 | > 6.8 µM (inactive) |  |
| CC(NC(=O)/C(C#N)=C/c1ccc([N+](=O)[O-])o1)c1ccccc1 (configuration not stated) | > 19.5 µM (inactive) |  |
| CC(C)N1CCc2c(sc(NC(=O)c3ccc4ccccc4c3)c2C(N)=O)C1 | 10.6 µM |  |
| CCN1/C(=C/C=C/c2oc3ccc(-c4ccccc4)cc3[n+]2CC)Oc2ccc(-c3ccccc3)cc21 | 0.00627 µM |  |
| O=[N+]([O-])c1ccc(/C=C/C2=NN(c3ccccc3)C(c3ccco3)C2)cc1 (configuration not stated) | 3.37 µM |  |
| O=[N+]([O-])c1ccc(N/N=C/c2ccc[nH]2)cc1 | > 19.5 µM (inactive) |  |
| O=S(=O)(Nc1cc2nc3ccccc3nc2n1Cc1ccccc1)c1ccc(Cl)cc1 | > 19.5 µM (inactive) |  |
| Cc1ccc(NC(=O)/C=C/c2ccc([N+](=O)[O-])s2)c(C)c1 | 7.81 µM |  |
| CCN1CCc2c(sc(NC(=O)c3ccc4ccccc4c3)c2C(N)=O)C1 | 3.45 µM |  |
| COc1ccc(C(=O)c2sc3nc(C)cc(-c4cccs4)c3c2N)cc1 | 14.5 µM |  |
| O=c1oc2cc(O)ccc2cc1-c1nc2c(s1)CCc1ccccc1-2 | 4.39 µM |  |
| Cc1n[nH]c(=S)n(/N=C/c2cccc([N+](=O)[O-])c2)c1=O | > 19.5 µM (inactive) |  |
| COc1ccc(CCNC(=O)c2ccc([N+](=O)[O-])cc2)cc1 | 18.8 µM |  |
| COc1ccc2nc(C)cc(NCc3ccc(F)cc3)c2c1 | 4.85 µM |  |
| Cc1ccccc1-c1ccc(C2[C@@H]3CN(Cc4cocn4)C[C@H]2N3)cc1 (some centres not stated) | > 2.35 µM (inactive) |  |
| CCN(CC)c1ccc2cc(-c3nc(-c4ccc(OC)cc4)cs3)c(=O)oc2c1 | 0.0781 µM |  |
| C[C@@H]1CCCCO[C@H](CN(C)C(=O)Nc2ccc(C(F)(F)F)cc2)[C@H](C)CN([C@H](C)CO)C(=O)c2cc(NC(=O)CCC(F)(F)F)ccc2O1 | 17.4 µM |  |
| COc1ccc(/C=C/C(=O)c2ccc([N+](=O)[O-])o2)cc1OC | > 19.5 µM (inactive) |  |
| O=[N+]([O-])c1ccc(C2=NN(c3ccccc3)C(c3ccco3)C2)cc1 (configuration not stated) | 2.59 µM |  |
| Cc1cc(N/N=C/c2ccc([N+](=O)[O-])o2)nc2ccccc12 | 13.8 µM |  |
| Cc1[nH]c2ccccc2c1/C=N/Nc1ccc([N+](=O)[O-])cc1 | 12.2 µM |  |
| Cc1ccc(C(=O)N/C(=C/c2ccc(-c3ccc([N+](=O)[O-])cc3)o2)C(=O)NCCCN(C)C)cc1 | 5.7 µM |  |
| COc1ccc(C(=O)c2sc3nc(C)cc(-c4cccs4)c3c2N)cc1OC | 16.3 µM |  |
| N#CC(C#N)=C1C=C2C=C(N3CCCCCC3)CCC2CC1 (configuration not stated) | 6.6 µM |  |
| CCN1C(=O)[C@@H]2Cc3c([nH]c4ccccc34)C(c3cc(OC)c(OC)c(OC)c3)N2C1=S (some centres not stated) | > 19.5 µM (inactive) |  |
| O=[N+]([O-])c1ccc(N2N=C(c3ccccc3)CC2c2ccccc2O)cc1 (configuration not stated) | 14.1 µM |  |

| SMILES | AC40 (cells pretreated with 5-aza-dC) | AC40 |
| --- | --- | --- |
| CCN(CC)c1ccc(/C=C/c2cc(-c3ccccc3)c3ccccc3n2)cc1 | 12.8 µM |  |
| O=C(NC1CCCC1)c1cccc2c1C(=O)c1ccc(/C=C/c3ccccc3)cc1S2(=O)=O | > 19.5 µM (inactive) |  |
| CCCCNc1ccc2c3c(cccc13)C(=O)N(CCCC)C2=O | 4.11 µM |  |
| N#C/C(=C\c1ccc([N+](=O)[O-])o1)c1nc2ccccc2[nH]1 | > 19.5 µM (inactive) |  |
| COc1cc2c3nnc(-c4ccc(F)cc4)c-3cn(Cc3cccc(C)c3)c2cc1OC | 3.63 µM |  |
| Cc1cc(C)c2cc3c(N)c(C(=O)Nc4c(C)[nH]c(=O)[nH]c4=O)sc3nc2c1 | > 19.5 µM (inactive) |  |
| CCOC(=O)/C=c1\s/c(=C\c2ccc3cc(OC)ccc3c2)c(=O)n1CC(=O)NCc1ccc2c(c1)OCO2 | 4.43 µM |  |
| COc1cc2c3nnc(-c4ccc(F)cc4)c-3cn(Cc3ccccc3F)c2cc1OC | 2.46 µM |  |
| COc1ccc2c(n1)Sc1nc3ccccc3nc1N2 | 12.5 µM |  |
| Cc1ccc2c(c1)c(/C=C/c1cc[n+](C)cc1)c(C)n2C | 10.1 µM |  |
| Cn1cc(C2=C(c3ccc(Cl)cc3Cl)C(=O)NC2=O)c2ccccc21 | 12.7 µM |  |
| CC(=O)Nc1sc(/C(C#N)=C/c2ccc(Cl)c(Cl)c2)nc1-c1ccc(C)cc1 | 3.55 µM |  |
| CCCCCC[n+]1ccccc1/C=C/c1ccc(N(C)C)cc1 | > 19.5 µM (inactive) |  |
| CCOC(=O)C1=C(O)/C(=C/c2cc(OC)c(O)c(OC)c2)SC1=Nc1ccc(OC)cc1 | > 19.5 µM (inactive) |  |
| Cc1c2c(cc3c1[nH]c1ccccc13)C=NCC2 | 15.8 µM |  |
| CCC(CO)[n+]1c(C)cc(/C=C2\Sc3ccccc3N2Cc2ccccc2)cc1C (configuration not stated) | 7.28 µM |  |
| Nc1c(C(=O)c2cccs2)sc2nsc(SCCN3CCCCC3)c12 | 2.03 µM |  |
| CCN1/C(=C/c2ccc3cc(C)ccc3[n+]2CC)Sc2ccccc21 | 0.395 µM |  |
| COc1cccc(C(=O)c2c(-c3ccccc3)ncc3cc(OC)c(OC)cc23)c1 | 19.4 µM |  |
| CN(C)S(=O)(=O)c1ccc2c(c1)/C(=C/c1cc3c([nH]1)CCCC3)C(=O)N2 | 3.17 µM |  |
| O=c1[nH]c(=O)n([C@H]2C[C@H](O)[C@@H](CO)O2)cc1C(F)(F)F | > 19.5 µM (inactive) |  |
| Cc1nnc(N2C(=O)c3cccc4c([N+](=O)[O-])ccc(c34)C2=O)s1 | > 19.5 µM (inactive) |  |
| Oc1ccc(/C=N/Nc2ccnc3cc(Cl)ccc23)c(O)c1 | > 19.5 µM (inactive) |  |
| Cc1ccc(NC(=O)/C=C/c2ccc([N+](=O)[O-])s2)cc1 | 4.44 µM |  |
